31 molecules from patent US7875647B2, “Heteroaryl-pyrazole derivatives as cannabinoid CB1 receptor antagonists” (Green Cross Corporation, priority 2006, dated 2011) can be followed below.

T1 sequence (P20272 whole entry): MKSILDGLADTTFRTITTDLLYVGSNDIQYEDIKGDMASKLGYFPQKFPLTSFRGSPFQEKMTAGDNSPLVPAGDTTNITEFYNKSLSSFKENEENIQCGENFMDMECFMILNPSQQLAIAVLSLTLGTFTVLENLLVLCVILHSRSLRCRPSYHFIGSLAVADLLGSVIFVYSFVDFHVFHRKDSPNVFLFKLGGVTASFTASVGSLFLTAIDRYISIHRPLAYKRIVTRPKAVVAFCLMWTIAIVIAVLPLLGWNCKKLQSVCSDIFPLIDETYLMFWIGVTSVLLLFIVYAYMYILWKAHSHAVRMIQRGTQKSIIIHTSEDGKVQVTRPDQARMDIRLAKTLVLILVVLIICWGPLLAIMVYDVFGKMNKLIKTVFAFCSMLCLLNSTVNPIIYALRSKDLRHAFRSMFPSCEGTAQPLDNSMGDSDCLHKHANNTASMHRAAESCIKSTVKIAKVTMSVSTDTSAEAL

The assay concerns the target T1, Cannabinoid-1 receptor (CB1R) (Rattus norvegicus, UniProt P20272).
T1 construct: The tissue obtained from the brain of SD rats was homogenized; from tissue; host or cells: brain of SD rats (membrane pellet of the homogenate)
In words: Cannabinoid-1 receptor (CB1R) binding affinity assay ([3H]CP-55940, rat CB-1 receptor binding protocol). Particulars: brain tissue of SD rats, [3H]CP-55940, 30° C. 60 min; read-out: IC50.
Regarding `CC(C)(C)c1nnc(-c2nn(-c3ccc(Cl)cc3Cl)c(-c3ccc(Cl)cc3)c2Br)o1` [Example 338, 2-(4-bromo-5-(4-chlorophenyl)-1-(2,4-dichlorophenyl)-1H-pyrazol-3-yl)-5-tert-butyl-1,3,4-oxadiazole], the IC50 worked out at 30.4 nM.
With `Cc1c(-c2nnn(Cc3ccncc3)n2)nn(-c2ccc(Cl)cc2Cl)c1-c1ccc(Cl)cc1` [Example 588, 4-((5-(5-(4-Chlorophenyl)-1-(2,4-dichlorophenyl)-4-methyl-1H-pyrazol-3-yl)-2H-tetrazol-2-yl)methyl)pyridine] the figure was 135 nM.
The figure for `C=C(C)c1c(-c2nnc(C(C)(C)C)o2)nn(-c2ccc(Cl)cc2Cl)c1-c1ccc(Cl)cc1` [Example 219, 2-tert-butyl-5-(5-(4-chlorophenyl)-1-(2,4-dichlorophenyl)-4-(prop-1-en-2-yl)-1H-pyrazol-3-yl)-1,3,4-oxadiazole] is 4.83 nM; for `Clc1ccc(-c2c(C3CC3)c(-c3nnc(C4CCC4)s3)nn2-c2ccc(Cl)cc2Cl)cc1` [Example 442, 2-(5-(4-chlorophenyl)-4-cyclopropyl-1-(2,4-dichlorophenyl)-1H-pyrazol-3-yl)-5-cyclobutyl-1,3,4-thiadiazole] it is 18 nM.
The figure for `CC(=O)c1c(-c2nnc(C(C)(C)C)o2)nn(-c2ccc(Cl)cc2Cl)c1-c1ccc(Br)cc1` [Example 214, 1-(5-(4-bromophenyl)-3-(5-tert-butyl-1,3,4-oxadiazol-2-yl)-1-(2,4-dichlorophenyl)-1H-pyrazol-4-yl)ethanone] is 11.9 nM; for `CCc1c(-c2nnc(C3(c4ccc(Cl)cc4)CC3)s2)nn(-c2ccc(Cl)cc2Cl)c1-c1ccc(Br)cc1` [Example 432, 2-(5-(4-bromophenyl)-1-(2,4-dichlorophenyl)-4-ethyl-1H-pyrazol-3-yl)-5-(1-(4-chlorophenyl)cyclopropyl)-1,3,4-thiadiazole] it is 7.98 nM; for `COCc1c(-c2nnc(C(C)(C)C)s2)nn(-c2ccc(Cl)cc2Cl)c1-c1ccc(Br)cc1` [Example 524, 2-(5-(4-bromophenyl)-1-(2,4-dichlorophenyl)-4-(methoxymethyl)-1H-pyrazol-3-yl)-5-tert-butyl-1,3,4-thiadiazole] it is 8.31 nM.
As for `CC(C)(C)c1nnc(-c2nn(-c3ccc(Cl)cc3Cl)c(-c3ccc(Cl)cc3)c2Cn2ccnn2)o1` [Example 304, 2-(4-((1H-1,2,3-triazol-1-yl)methyl)-5-(4-chlorophenyl)-1-(2,4-dichlorophenyl)-1H-pyrazol-3-yl)-5-tert-butyl-1,3,4-oxadiazole], the 50% inhibitory concentration (IC50) came out at 12.8 nM.
The figure for `Cc1c(-c2nnc(C(C)(C)C3CCCC3)s2)nn(-c2ccc(Cl)cc2Cl)c1-c1ccc(Cl)cc1` [Example 393, 2-(5-(4-chlorophenyl)-1-(2,4-dichlorophenyl)-4-methyl-1H-pyrazol-3-yl)-5-(2-cyclopentylpropan-2-yl)-1,3,4-thiadiazole] is 19.5 nM; for `CC(C)(C)c1nnc(-c2nn(-c3ccc(Cl)cc3Cl)c(-c3ccc(Cl)cc3)c2Cn2ccnc2)o1` [Example 297, 2-(4-((1H-imidazol-1-yl)methyl)-5-(4-chlorophenyl)-1-(2,4-dichlorophenyl)-1H-pyrazol-3-yl)-5-tert-butyl-1,3,4-oxadiazole] it is 18.7 nM; for `CC(C)(c1ccc(Cl)cc1)c1nnc(-c2nn(-c3ccc(Cl)cc3Cl)c(-c3ccc(Cl)cc3)c2Br)o1` [Example 343, 2-(4-bromo-5-(4-chlorophenyl)-1-(2,4-dichlorophenyl)-1H-pyrazol-3-yl)-5-(2-(4-chlorophenyl)propan-2-yl)-1,3,4-oxadiazole] it is 22.2 nM.
The figure for `CCN(C)Cc1c(-c2nnc(C(C)(C)C)o2)nn(-c2ccc(Cl)cc2Cl)c1-c1ccc(Cl)cc1` [Example 290, N-((3-(5-tert-butyl-1,3,4-oxadiazol-2-yl)-5-(4-chlorophenyl)-1-(2,4-dichlorophenyl)-1H-pyrazol-4-yl)methyl)-N-methylethanamine] is 227 nM.
Turning to `C=CCOC(C)(C)c1nnc(-c2nn(-c3ccc(Cl)cc3Cl)c(-c3ccc(Cl)cc3)c2C)o1` [Example 237, 2-(2-(allyloxy)propan-2-yl)-5-(5-(4-chlorophenyl)-1-(2,4-dichlorophenyl)-4-methyl-1H-pyrazol-3-yl)-1,3,4-oxadiazole], the half-maximal inhibitory concentration (IC50) turned out to be 17.3 nM.
With `Cc1c(-c2nnc(C(C)(C)Oc3ccccn3)o2)nn(-c2ccc(Cl)cc2Cl)c1-c1ccc(Cl)cc1` [Example 80, 2-(5-(4-chlorophenyl)-1-(2,4-dichlorophenyl)-4-methyl-1H-pyrazol-3-yl)-5-(2-(pyridin-2-yloxy)propan-2-yl)-1,3,4-oxadiazole] the figure was 36.1 nM.
With `Cc1c(-c2nnn(C3CCCC3)n2)nn(-c2ccc(Cl)cc2Cl)c1-c1ccc(Cl)cc1` [Example 578, 5-(5-(4-Chlorophenyl)-1-(2,4-dichlorophenyl)-4-methyl-1H-pyrazol-3-yl)-2-cyclopentyl-2H-tetrazole] the figure was 67.9 nM; with `Cc1c(-c2nnc(C3CCCCCC3)s2)nn(-c2ccc(Cl)cc2Cl)c1-c1ccc(Cl)cc1` [Example 362, 2-(5-(4-Chlorophenyl)-1-(2,4-dichlorophenyl)-4-methyl-1H-pyrazol-3-yl)-5-cycloheptyl-1,3,4-thiadiazole], 36.1 nM; with `CC(C)(C)c1nnc(-c2nn(-c3ccc(Cl)cc3Cl)c(-c3ccc(Cl)cc3)c2Cn2cccn2)o1` [Example 298, 2-(4-((1H-pyrazol-1-yl)methyl)-5-(4-chlorophenyl)-1-(2,4-dichlorophenyl)-1H-pyrazol-3-yl)-5-tert-butyl-1,3,4-oxadiazole], 20.5 nM.
The figure for `Cc1c(-c2nnc(C3(c4ccc(F)cc4)CC3)o2)nn(-c2ccc(Cl)cc2Cl)c1-c1ccc(Cl)cc1` [Example 274, 2-(5-(4-chlorophenyl)-1-(2,4-dichlorophenyl)-4-methyl-1H-pyrazol-3-yl)-5-(1-(4-fluorophenyl)cyclopropyl)-1,3,4-oxadiazole] is 12.3 nM; for `Cc1c(-c2nnc(NC3CCCCC3)s2)nn(-c2ccc(Cl)cc2Cl)c1-c1ccc(Cl)cc1` [Example 382, 5-(5-(4-chlorophenyl)-1-(2,4-dichlorophenyl)-4-methyl-1H-pyrazol-3-yl)-N-cyclohexyl-1,3,4-thiadiazol-2-amine] it is 60.3 nM.
For `CCc1c(-c2nnc(C3(C)CC3)s2)nn(-c2ccc(Cl)cc2Cl)c1-c1ccc(Br)cc1` [Example 470, 2-(5-(4-bromophenyl)-1-(2,4-dichlorophenyl)-4-ethyl-1H-pyrazol-3-yl)-5-(1-methylcyclopropyl)-1,3,4-thiadiazole], the IC50 was found to be 11.8 nM.
With `Cc1c(-c2nnn(Cc3ccccc3)n2)nn(-c2ccc(Cl)cc2Cl)c1-c1ccc(Cl)cc1` [Example 582, 2-Benzyl-5-(5-(4-chlorophenyl)-1-(2,4-dichlorophenyl)-4-methyl-1H-pyrazol-3-yl)-2H-tetrazole] the figure was 105 nM.
With `CCC(C)c1nnc(-c2nn(-c3ccccc3Cl)c(-c3ccc(Br)cc3)c2C)s1` (stereo not shown) [Example 428, 2-(5-(4-bromophenyl)-1-(2-chlorophenyl)-4-methyl-1H-pyrazol-3-yl)-5-sec-butyl-1,3,4-thiadiazole] the figure was 15.7 nM.
The figure for `Cc1c(-c2nnc(C(C)(C)CO)o2)nn(-c2ccc(Cl)cc2Cl)c1-c1ccc(Cl)cc1` [Example 253, 2-(5-(5-(4-chlorophenyl)-1-(2,4-dichlorophenyl)-4-methyl-1H-pyrazol-3-yl)-1,3,4-oxadiazol-2-yl)-2-methylpropan-1-ol] is 97.9 nM.
As to `Cc1c(-c2nnc(C3CCC3)s2)nn(-c2ccc(Cl)cc2Cl)c1-c1cccc(Cl)c1` [Example 436, 2-(5-(3-chlorophenyl)-1-(2,4-dichlorophenyl)-4-methyl-1H-pyrazol-3-yl)-5-cyclobutyl-1,3,4-thiadiazole], the IC50 was found to be 893 nM.
The figure for `Cc1c(-c2nnc(C3CCC3)s2)nn(-c2ccccc2Cl)c1-c1ccc(Br)cc1` [Example 427, 2-(5-(4-bromophenyl)-1-(2-chlorophenyl)-4-methyl-1H-pyrazol-3-yl)-5-cyclobutyl-1,3,4-thiadiazole] is 29.6 nM; for `Cc1c(-c2nnc(-c3cc4ccccc4o3)o2)nn(-c2ccc(Cl)cc2Cl)c1-c1ccc(Cl)cc1` [Example 18, 2-(Benzofuran-2-yl)-5-(5-(4-chlorophenyl)-1-(2,4-dichlorophenyl)-4-methyl-1H-pyrazol-3-yl)-1,3,4-oxadiazole] it is 333 nM; for `CCC(C)c1nnc(-c2nn(-c3ccc(Cl)cc3Cl)c(-c3ccc(Cl)cc3)c2Br)o1` (stereo not shown) [Example 339, 2-(4-bromo-5-(4-chlorophenyl)-1-(2,4-dichlorophenyl)-1H-pyrazol-3-yl)-5-sec-butyl-1,3,4-oxadiazole] it is 21.3 nM.
The figure for `Cc1c(-c2nnc(CC(F)(F)F)o2)nn(-c2ccc(Cl)cc2Cl)c1-c1ccc(Cl)cc1` [Example 136, 2-(5-(4-chlorophenyl)-1-(2,4-dichlorophenyl)-4-methyl-1H-pyrazol-3-yl)-5-(2,2,2-trifluoroethyl)-1,3,4-oxadiazole] is 74.2 nM; for `CC(C)(C)c1nnc(-c2nn(-c3ccc(Cl)cc3Cl)c(-c3ccc(Cl)cc3)c2CN2C(=O)CCC2=O)o1` [Example 305, 1-((3-(5-tert-butyl-1,3,4-oxadiazol-2-yl)-5-(4-chlorophenyl)-1-(2,4-dichlorophenyl)-1H-pyrazol-4-yl)methyl)pyrrolidine-2,5-dione] it is 287 nM; for `Cc1c(-c2nc(C3CC3)n(C)n2)nn(-c2ccc(Cl)cc2Cl)c1-c1ccc(Cl)cc1` [Example 628, 3-(5-(4-chlorophenyl)-1-(2,4-dichlorophenyl)-4-methyl-1H-pyrazol-3-yl)-5-cyclopropyl-1-methyl-1H-1,2,4-triazole] it is 904 nM.
The figure for `Clc1ccc(-c2c(Br)c(-c3nnc(C4(c5ccc(Cl)cc5)CC4)s3)nn2-c2ccc(Cl)cc2Cl)cc1` [Example 547, 2-(4-bromo-5-(4-chlorophenyl)-1-(2,4-dichlorophenyl)-1H-pyrazol-3-yl)-5-(1-(4-chlorophenyl)cyclopropyl)-1,3,4-thiadiazole] is 12.9 nM.

One may read the IC50 as the midpoint of a concentration-inhibition curve.
